Measurements published in patent US20160158317A1, “Antimicrobial Peptide Variants and Polynucleotides Encoding Same” (Adenium Biotech A/S, priority 2010, published 2016).
Read-outs that look alike come from different tables or passages of the source. Where a SMILES comes first, the peptide text is derived from it. Bridges are numbered along the chain shown (N, C = ends).

Columns and labels:
[1] = test system: E. coli ATCC 10536; test: Plate assay screening of variants expressed in S. cerevisiae, overlaid with target organism in presence of horse blood or serum; assay type: cell-based, Escherichia coli; settings: 2.5% blood, 5% blood or 5% serum
Excerpt: Several strategies were used for variant generation of the polynucleotide of SEQ ID NO:1. The resulting libraries were cloned and expressed in S. cerevisiae. Transformed clones were screened on a plate assay containing growth media supplemented with 1.5% galactose and 0.5% glucose and either horse blood (2.5-5%) or serum (5%), overlayed with the target organism, E. coli ATCC 10536 (See Raventos et al., 2005, Comb Chem High Throughput Screen. 8:219-33).
Approximately, 300 Saccharomyces cerevisiae colonies expressing arenicin variants were spread on screening plates containing either horse blood (2.5% or 5%) or 5% horse serum (see composition of the plates below). Plates were incubated 3 hours at 30° C. to allow them to dry. Next, 25 ml overlay temperate at 42° C. was added to the plates. After the media had solidified, the plates were incubated 3 days at 30° C.
On day 4, plates were overlayed with pre-warmed media at 42° C. containing either 2.5% or 5% horse blood or 5% horse serum and the target bacteria, E. coli ATCC 10536 (see below for details on media composition). After the overlay solidified, plates were incubated 16 hours at 37° C. Next day, plates were colored by adding 10 ml of 1.5 mM MTT to the plates and incubated at room temperature for 30 minutes. Clones giving rise to clearing zones were picked and sequenced. […]

[2] = Determination of the protein binding (90% serum, 30 kDa filter, HPLC); assay type: in vitro ADME
Experimental: Protein binding assays were performed as follows. The purified peptides were mixed with 90% serum and centrifuged through a 30 kDa filter. The ultra-filtrate and the non filtrated serum samples were quantified by HPLC measurements and the protein binding was subsequently calculated.

What does the source list for `CC(C)[C@@H]1NC(=O)CNC(=O)[C@H](CC(N)=O)NC(=O)[C@H](CCCNC(=N)N)NC(=O)[C@H](Cc2ccc(O)cc2)NC(=O)[C@H](C(C)C)NC(=O)[C@@H]2CSSC[C@H](NC(=O)[C@H](C(C)C)NC(=O)[C@H](CCCNC(=N)N)NC1=O)C(=O)N[C@@H](Cc1ccc(O)cc1)C(=O)N[C@@H](CCCNC(=N)N)C(=O)N[C@@H](CCCNC(=N)N)C(=O)N[C@H](C(=O)N[C@@H](CC(N)=O)C(=O)O)CSSC[C@H](NC(=O)[C@H](Cc1ccccc1)NC(=O)CN)C(=O)N[C@@H](Cc1c[nH]c3ccccc13)C(=O)N[C@@H](Cc1ccc(O)cc1)C(=O)N[C@@H](C(C)C)C(=O)N2` [SEQ ID NO: 2, reference compound] (H-GFCWYVCVYRNGVRVCYRRCN-OH; disulfide 3-20, 7-16)?
antimicrobial activity in plate assay (clearing zones) [1]: fully inhibited; fraction unbound ([2]; purified peptide mixed with 90% serum, 30 kDa filter, HPLC, read-out: Protein binding (%) (converted)): 0.005

With `CC(C)C[C@@H]1NC(=O)CNC(=O)[C@H](CC(N)=O)NC(=O)[C@H](CCCNC(=N)N)NC(=O)[C@H](CCCNC(=N)N)NC(=O)[C@H](C)NC(=O)[C@@H]2CSSC[C@H](NC(=O)[C@H](CO)NC(=O)[C@H](CCCNC(=N)N)NC1=O)C(=O)N[C@@H](Cc1ccc(O)cc1)C(=O)N[C@@H](CCCNC(=N)N)C(=O)N[C@@H](CCCNC(=N)N)C(=O)N[C@H](C(=O)N[C@@H](CC(N)=O)C(=O)O)CSSC[C@H](NC(=O)[C@H](Cc1ccccc1)NC(=O)CN)C(=O)N[C@@H](Cc1c[nH]c3ccccc13)C(=O)N[C@@H](Cc1ccc(O)cc1)C(=O)N[C@@H](C(C)C)C(=O)N2` [compound 453] (H-GFCWYVCARRNGLRSCYRRCN-OH; disulfide 3-20, 7-16 (inferred); N-terminus and C-terminus assumed) as the molecule, how does the fraction unbound ([2]; serum) read?
Its fraction unbound is 0.08.

Which fraction unbound ([2]; serum) does the source give for `CC(C)[C@@H]1NC(=O)[C@@H]2CSSC[C@H](NC(=O)[C@H](CCCCN)NC(=O)[C@H](CCCNC(=N)N)NC(=O)[C@H](C)NC(=O)CNC(=O)[C@H](CC(N)=O)NC(=O)[C@H](CCCNC(=N)N)NC(=O)[C@H](CCCCN)NC1=O)C(=O)N[C@@H](Cc1c[nH]cn1)C(=O)N[C@@H](CCCNC(=N)N)C(=O)N[C@@H](CCCNC(=N)N)C(=O)N[C@H](C(=O)N[C@@H](CC(N)=O)C(=O)O)CSSC[C@H](NC(=O)[C@H](Cc1ccccc1)NC(=O)CN)C(=O)N[C@@H](Cc1c[nH]c3ccccc13)C(=O)N[C@@H](Cc1ccc(O)cc1)C(=O)N[C@@H](C(C)C)C(=O)N2` [compound 454] (H-GFCWYVCVKRNGARKCHRRCN-OH; disulfide 3-20, 7-16 (inferred); N-terminus and C-terminus assumed) here?
Its fraction unbound is 0.1.

With `CC(C)[C@@H]1NC(=O)[C@@H]2CSSC[C@H](NC(=O)[C@H](C)NC(=O)[C@H](CCCNC(=N)N)NC(=O)[C@H](CCCCN)NC(=O)CNC(=O)[C@H](CC(N)=O)NC(=O)[C@H](CCCCN)NC(=O)[C@H](Cc3ccc(O)cc3)NC1=O)C(=O)N[C@@H](Cc1ccc(O)cc1)C(=O)N[C@@H](CCCNC(=N)N)C(=O)N[C@@H](CCCNC(=N)N)C(=O)N[C@H](C(=O)N[C@@H](CC(N)=O)C(=O)O)CSSC[C@H](NC(=O)[C@H](Cc1ccccc1)NC(=O)CN)C(=O)NCC(=O)N[C@@H](CCCNC(=N)N)C(=O)N[C@@H](C(C)C)C(=O)N2` [compound 493] (H-GFCGRVCVYKNGKRACYRRCN-OH; disulfide 3-20, 7-16 (inferred); N-terminus and C-terminus assumed) as the molecule, how does the fraction unbound ([2]; serum) read?
The fraction unbound was 0.23.

For `CC(C)[C@@H]1NC(=O)[C@H](CCCCN)NC(=O)[C@H](Cc2c[nH]c3ccccc23)NC(=O)[C@@H](NC(=O)[C@H](Cc2ccccc2)NC(=O)CN)CSSC[C@@H](C(=O)N[C@@H](CC(N)=O)C(=O)O)NC(=O)[C@H](CCCNC(=N)N)NC(=O)[C@H](CCCNC(=N)N)NC(=O)[C@H](Cc2ccc(O)cc2)NC(=O)[C@@H]2CSSC[C@H](NC1=O)C(=O)N[C@@H](C)C(=O)N[C@@H](CCCNC(=N)N)C(=O)N[C@@H](CCCNC(=N)N)C(=O)N[C@@H](CC(N)=O)C(=O)NCC(=O)N[C@@H](C)C(=O)N[C@@H](CCCNC(=N)N)C(=O)N[C@@H](CO)C(=O)N2` [compound 504] (H-GFCWKVCARRNGARSCYRRCN-OH; disulfide 3-20, 7-16 (inferred); N-terminus and C-terminus assumed), which fraction unbound ([2]; serum) is on record?
The fraction unbound was 0.05.

For `CC(C)[C@@H]1NC(=O)[C@@H]2CSSC[C@H](NC(=O)[C@H](CO)NC(=O)[C@H](CCCNC(=N)N)NC(=O)[C@H](CCCCN)NC(=O)CNC(=O)[C@H](CC(N)=O)NC(=O)[C@H](CO)NC(=O)[C@H](Cc3ccc(O)cc3)NC1=O)C(=O)N[C@@H](Cc1c[nH]cn1)C(=O)N[C@@H](CCCNC(=N)N)C(=O)N[C@@H](CCCNC(=N)N)C(=O)N[C@H](C(=O)N[C@@H](CC(N)=O)C(=O)O)CSSC[C@H](NC(=O)[C@H](Cc1ccccc1)NC(=O)CN)C(=O)N[C@@H](Cc1c[nH]c3ccccc13)C(=O)N[C@@H](CCCNC(=N)N)C(=O)N[C@@H](C(C)C)C(=O)N2` [compound 509] (H-GFCWRVCVYSNGKRSCHRRCN-OH; disulfide 3-20, 7-16 (inferred); N-terminus and C-terminus assumed), which fraction unbound ([2]; serum) is on record?
The fraction unbound was 0.13.

For `CC(C)[C@@H]1NC(=O)[C@H](CCCNC(=N)N)NC(=O)[C@H](Cc2c[nH]c3ccccc23)NC(=O)[C@@H](NC(=O)[C@H](Cc2ccccc2)NC(=O)CN)CSSC[C@@H](C(=O)N[C@@H](CC(N)=O)C(=O)O)NC(=O)[C@H](CCCNC(=N)N)NC(=O)[C@H](CCCNC(=N)N)NC(=O)[C@H](Cc2ccc(O)cc2)NC(=O)[C@@H]2CSSC[C@H](NC1=O)C(=O)N[C@@H](C)C(=O)N[C@@H](Cc1ccc(O)cc1)C(=O)N[C@@H](CCCCN)C(=O)N[C@@H](CC(N)=O)C(=O)NCC(=O)N[C@@H](CCCCN)C(=O)N[C@@H](CCCNC(=N)N)C(=O)N[C@@H](CO)C(=O)N2` [compound 523] (H-GFCWRVCAYKNGKRSCYRRCN-OH; disulfide 3-20, 7-16 (inferred); N-terminus and C-terminus assumed), which fraction unbound ([2]; serum) is on record?
The fraction unbound was 0.1.
